Where two headings read alike, the source gives them in different places.
Legend:
[1] = system: oral bacteria; test: Alamar Blue assay of antibacterial efficacy in the presence of SLS; type: cell-based, oral bacteria from human saliva; settings: 1 hour after addition of dye; for presence or absence of live bacteria (indicated by color): Alamar Blue assay in the presence of SLS; for Color of Solution: Alamar Blue, 10 mg active + 20 mg of 30 weight % SLS solution + 5 ml oral bacteria solution, 37° C., blue to red indicates live bacteria
Procedure: Table 1 describes the results of an assay evaluating the antibacterial efficacy of an exemplary CPC-ZnCl2 complex of the present invention, in the presence of an anionic surfactant. […] A negative control was also prepared adding 20 mg (+/− 0.9 mg) of the 30 weight % SLS aqueous solution and 5 ml of the prepared oral bacteria solution to deionized water instead of the antibacterial ingredient. The samples were then placed in a 37° C. oven and shaken at 100 RPM for 30 minutes. 200 μL of Alamar Blue dye was then added to each sample and placed back in the 37° C. oven and shaken at 100 RPM. The samples were then monitored every 30 minutes, with the results 1 hour after addition of the dye recorded in Table 1.

[2] = deionized water, physiological temperature (36-37° C.)
[3] = deionized water, room temperature (23-24° C.)
[4] = deionized water, room temperature (23-24° C.), even after 24 hours of aging

Row | SMILES | presence or absence of live bacteria (indicated by color) [1] | Color of Solution [1] | solubility of 1.0 weight % aqueous solution [2] | solubility of 10 weight % aqueous solution [2] | solubility of 0.1 weight % aqueous solution [3] | solubility of 0.5 weight % aqueous solution [3] | solubility of 1.0 weight % aqueous solution [4] | solubility of 10.0 weight % aqueous solution [4] | reduction in solubility compared to the CPC and ZnCl2 reactants separately (water) [fold]
1 | CCCCCCCCCCCCCCCC[n+]1ccccc1 [CPC, Cetylpyridinium chloride] | presence of live bacteria | Pink | – | – | – | – | – | – | –
2 | CCCCCCCCCCCCCCCC[n+]1ccccc1.CCCCCCCCCCCCCCCC[n+]1ccccc1.[Cl][Zn-2]([Cl])([Cl])[Cl] [CPC-ZnCl2 complex, [(C21H38N)2][ZnCl4]] | absence of live bacteria | Blue | soluble | not fully soluble | soluble | soluble | undissolved | undissolved | ≥ 25
3 | [Cl-].[Cl-].[Zn+2] [ZnCl2, zinc chloride] | presence of live bacteria | Purple | – | – | – | – | – | – | –
